This note sets out measurements from patent US20230201030A1, “DISSOLVABLE MEDICAL DEVICE FOR DRUGS DELIVERY” (Alcon Inc., priority 2021, published 2023).

The assay concerns pupil. Put plainly: Response behavior of phenylephrine (pupil dilation) delivered in the presence/absence of the polymeric film. The assay is classed as in vivo. To be noted: 0.005% phenylephrine with polymeric film vs 2.5% phenylephrine alone.

Protocol: In the groups with such treatments, a 0.1-0.2 g lens was applied to the center of the cornea. 1 drop of dilating agent (phenylephrine) of predetermined concentration was applied at t(0). Size of pupil was measured using a pre-measured device for reference and followed up using the same scale.

Consider `CNC[C@H](O)c1cccc(O)c1` [phenylephrine, Phenylephrine], for which the “reduction of drug load at similar efficacy” value was determined as 500 fold.
